Test results taken from ChEMBL document CHEMBL2074244, “Loss of ATP-dependent transport activity in pseudoxanthoma elasticum-associated mutants of human ABCC6 (MRP6)” (J Biol Chem, 2002).
One block for each molecule: values may come before it.

Experiments:
Assay type in all cases: functional, cell membranes, Membrane vesicle
Parameters in all cases: scale not given: the % may be the effect or the level left
[1] = molecular target: ATP-binding cassette sub-family C member 2 (Homo sapiens, UniProt Q92887); assay: TP_TRANSPORTER: inhibition of NEM-GS by Benzbromarone at a concentration of 30uM in membrane vesicles from MRP2-expressing Sf9 cells; settings: sf9, 30 µM
MRP6 (ABCC6) [2] = molecular target: T1, MRP6 (ABCC6) (Homo sapiens, UniProt O95255); assay: TP_TRANSPORTER: inhibition of NEM-GS by Benzbromarone at a concentration of 30uM in membrane vesicles from MRP6-expressing Sf9 cells; settings: probe NEM-GS, read-out: Activity
MRP6 (ABCC6) [3] = molecular target: T1, MRP6 (ABCC6); assay: TP_TRANSPORTER: inhibition of NEM-GS in the presence of Benzbromarone at a concentration of 30uM in membrane vesicles from MRP6-expressing Sf9 cells; settings: probe NEM-GS, read-out: Activity
MRP6 (ABCC6) [4] = molecular target: T1, MRP6 (ABCC6); assay: TP_TRANSPORTER: inhibition of NEM-GS in the presence of Indomethacin at a concentration of 100uM in membrane vesicles from MRP6-expressing Sf9 cells; settings: probe NEM-GS, read-out: Activity
MRP6 (ABCC6) [5] = molecular target: T1, MRP6 (ABCC6); assay: TP_TRANSPORTER: inhibition of NEM-GS by Indomethacin at a concentration of 100uM in membrane vesicles from MRP6-expressing Sf9 cells; settings: probe NEM-GS, read-out: Activity
MRP2 (ABCC2) = MRP2 (ABCC2) (Homo sapiens, UniProt Q92887); assay: TP_TRANSPORTER: inhibition of NEM-GS by Probenecid at a concentration of 1mM in membrane vesicles from MRP2-expressing Sf9 cells; settings: probe NEM-GS, read-out: Activity
[6] = molecular target: ATP-binding cassette sub-family C member 6 (Homo sapiens, UniProt O95255); assay: TP_TRANSPORTER: inhibition of NEM-GS by Probenecid at a concentration of 1mM in membrane vesicles from MRP6-expressing Sf9 cells; settings: sf9, 1000 µM
MRP6 (ABCC6) [7] = molecular target: T1, MRP6 (ABCC6); assay: TP_TRANSPORTER: inhibition of NEM-GS in the presence of Probenecid at a concentration of 1mM in membrane vesicles from MRP6-expressing Sf9 cells; settings: probe NEM-GS, read-out: Activity

T1 sequence (O95255 whole entry): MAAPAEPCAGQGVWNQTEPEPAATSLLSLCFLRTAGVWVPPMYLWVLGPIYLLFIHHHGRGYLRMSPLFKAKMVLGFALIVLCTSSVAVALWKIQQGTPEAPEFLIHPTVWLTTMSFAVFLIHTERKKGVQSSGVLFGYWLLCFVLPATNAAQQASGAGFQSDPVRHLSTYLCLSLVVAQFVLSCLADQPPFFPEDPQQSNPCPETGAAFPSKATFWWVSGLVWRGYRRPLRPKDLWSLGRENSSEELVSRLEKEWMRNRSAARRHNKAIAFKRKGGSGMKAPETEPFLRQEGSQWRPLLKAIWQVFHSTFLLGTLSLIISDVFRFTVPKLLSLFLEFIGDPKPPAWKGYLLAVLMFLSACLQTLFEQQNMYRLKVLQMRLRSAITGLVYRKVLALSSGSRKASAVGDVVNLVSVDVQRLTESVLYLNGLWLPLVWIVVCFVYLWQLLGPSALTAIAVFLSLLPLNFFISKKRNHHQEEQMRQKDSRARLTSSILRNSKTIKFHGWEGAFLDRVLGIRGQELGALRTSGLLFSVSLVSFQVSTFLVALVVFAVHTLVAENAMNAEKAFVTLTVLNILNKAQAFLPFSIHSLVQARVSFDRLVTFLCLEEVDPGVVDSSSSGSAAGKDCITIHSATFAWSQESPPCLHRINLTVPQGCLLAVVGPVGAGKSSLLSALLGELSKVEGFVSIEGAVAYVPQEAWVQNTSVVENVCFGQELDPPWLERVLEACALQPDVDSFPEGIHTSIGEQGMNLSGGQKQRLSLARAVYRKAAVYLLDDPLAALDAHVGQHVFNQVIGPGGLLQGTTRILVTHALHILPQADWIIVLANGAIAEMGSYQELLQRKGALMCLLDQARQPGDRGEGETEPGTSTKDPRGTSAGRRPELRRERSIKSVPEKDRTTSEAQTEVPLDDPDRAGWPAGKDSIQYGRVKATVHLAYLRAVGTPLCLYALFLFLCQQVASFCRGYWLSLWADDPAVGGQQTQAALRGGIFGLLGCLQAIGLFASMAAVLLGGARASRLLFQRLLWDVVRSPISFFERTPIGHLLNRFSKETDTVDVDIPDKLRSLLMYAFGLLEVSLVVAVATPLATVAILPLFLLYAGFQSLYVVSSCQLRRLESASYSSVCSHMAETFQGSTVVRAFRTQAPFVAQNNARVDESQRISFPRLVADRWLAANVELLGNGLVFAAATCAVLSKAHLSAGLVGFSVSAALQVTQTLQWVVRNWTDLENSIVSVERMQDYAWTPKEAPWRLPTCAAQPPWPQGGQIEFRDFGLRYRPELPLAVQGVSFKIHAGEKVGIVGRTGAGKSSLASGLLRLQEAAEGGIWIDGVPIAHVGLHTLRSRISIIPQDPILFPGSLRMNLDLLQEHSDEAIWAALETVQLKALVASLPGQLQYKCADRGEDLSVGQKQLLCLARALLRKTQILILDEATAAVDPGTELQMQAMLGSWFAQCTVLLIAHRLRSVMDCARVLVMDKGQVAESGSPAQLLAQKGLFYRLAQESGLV
MRP2 (ABCC2), sequence (Q92887 whole entry): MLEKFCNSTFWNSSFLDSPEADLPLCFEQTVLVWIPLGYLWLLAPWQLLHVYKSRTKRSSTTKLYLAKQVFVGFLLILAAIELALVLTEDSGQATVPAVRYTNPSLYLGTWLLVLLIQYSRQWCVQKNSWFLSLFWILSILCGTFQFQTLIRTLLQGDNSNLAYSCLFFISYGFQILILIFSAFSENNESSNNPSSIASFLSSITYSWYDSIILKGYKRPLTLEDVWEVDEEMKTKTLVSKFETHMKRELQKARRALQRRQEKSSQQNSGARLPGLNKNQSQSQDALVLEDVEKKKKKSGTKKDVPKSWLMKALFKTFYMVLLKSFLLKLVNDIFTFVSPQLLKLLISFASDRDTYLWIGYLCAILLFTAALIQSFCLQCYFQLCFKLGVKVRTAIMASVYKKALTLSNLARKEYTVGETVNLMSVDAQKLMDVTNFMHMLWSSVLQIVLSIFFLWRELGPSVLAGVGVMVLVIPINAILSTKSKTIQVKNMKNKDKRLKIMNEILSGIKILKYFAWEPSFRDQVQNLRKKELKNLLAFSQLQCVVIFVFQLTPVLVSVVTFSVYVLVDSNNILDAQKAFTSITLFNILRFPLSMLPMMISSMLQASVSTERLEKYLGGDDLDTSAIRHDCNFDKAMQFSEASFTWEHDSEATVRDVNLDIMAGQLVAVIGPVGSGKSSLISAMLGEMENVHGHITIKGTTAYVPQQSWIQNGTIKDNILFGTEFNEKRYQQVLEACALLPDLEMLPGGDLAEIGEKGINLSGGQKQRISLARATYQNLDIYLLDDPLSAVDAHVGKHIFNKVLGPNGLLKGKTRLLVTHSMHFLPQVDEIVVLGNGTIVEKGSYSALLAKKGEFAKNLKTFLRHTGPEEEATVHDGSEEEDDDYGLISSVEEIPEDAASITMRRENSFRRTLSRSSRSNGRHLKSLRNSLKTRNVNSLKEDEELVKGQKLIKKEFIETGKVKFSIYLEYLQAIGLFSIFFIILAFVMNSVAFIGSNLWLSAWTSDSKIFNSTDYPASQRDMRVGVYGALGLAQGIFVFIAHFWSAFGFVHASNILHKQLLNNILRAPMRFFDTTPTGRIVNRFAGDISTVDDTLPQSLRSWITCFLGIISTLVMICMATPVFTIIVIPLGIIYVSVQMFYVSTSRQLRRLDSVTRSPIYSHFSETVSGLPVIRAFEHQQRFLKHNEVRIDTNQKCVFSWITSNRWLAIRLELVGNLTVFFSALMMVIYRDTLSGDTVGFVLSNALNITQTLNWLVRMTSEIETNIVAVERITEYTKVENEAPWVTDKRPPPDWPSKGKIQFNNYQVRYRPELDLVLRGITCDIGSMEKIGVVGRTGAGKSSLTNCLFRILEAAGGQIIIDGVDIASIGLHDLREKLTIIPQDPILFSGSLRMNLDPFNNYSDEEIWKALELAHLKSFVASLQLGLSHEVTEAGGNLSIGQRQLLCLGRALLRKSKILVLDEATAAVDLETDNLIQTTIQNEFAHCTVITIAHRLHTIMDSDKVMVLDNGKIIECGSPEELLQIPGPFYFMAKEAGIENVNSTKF
ATP-binding cassette sub-family C member 2, sequence (Q92887 whole entry): as above
ATP-binding cassette sub-family C member 6, sequence (O95255 whole entry): as the sequence (O95255 whole entry) above

Activity [1]: 0%
activity at 30 µM (MRP6 (ABCC6) [2]): 0%
activity at 30 µM (MRP6 (ABCC6) [3]): 0%
SMILES: CCc1oc2ccccc2c1C(=O)c1cc(Br)c(O)c(Br)c1 [BENZBROMARONE]

activity at 100 µM (MRP6 (ABCC6) [4]): 80%
activity at 100 µM (MRP6 (ABCC6) [5]): 20%
SMILES: COc1ccc2c(c1)c(CC(=O)O)c(C)n2C(=O)c1ccc(Cl)cc1 [INDOMETHACIN]

activity at 1000 µM (MRP2 (ABCC2)): 20%
Activity [6]: 70%
activity at 1000 µM (MRP6 (ABCC6) [7]): 10%
SMILES: CCCN(CCC)S(=O)(=O)c1ccc(C(=O)O)cc1 [PROBENECID]
